Results from patent publication US8859493B2, “Insulin derivatives” (Novo Nordisk A/S, priority 2005, dated 2014).

target: human insulin receptor (Homo sapiens, UniProt P06213); assay: Insulin receptor binding, SPA (Scintillation Proximity Assay) microtiterplate antibody capture assay; details: relative to human insulin; purified recombinant human insulin receptor - exon 11; A14 Tyr[125I]-human insulin tracer; 16 hours incubation
Method: The affinity of the insulin analogues of the invention for the human insulin receptor was determined by a SPA assay (Scintillation Proximity Assay) microtiterplate antibody capture assay. SPA-PVT antibody-binding beads, anti-mouse reagent (Amersham Biosciences, Cat No. PRNQ0017) were mixed with 25 ml of binding buffer (100 mM HEPES pH 7.8; 100 mM sodium chloride, 10 mM MgSO4, 0.025% Tween-20). Reagent mix for a single Packard Optiplate (Packard No. 6005190) is composed of 2.4 μl of a 1:5000 diluted purified recombinant human insulin receptor—exon 11, an amount of a stock solution of A14 Tyr[^125I]-human insulin corresponding to 5000 cpm per 100 μl of reagent mix, 12 μl of a 1:1000 dilution of F12 antibody, 3 ml of SPA-beads and binding buffer to a total of 12 ml. A total of 100 μl was then added and a dilution series is made from appropriate samples. To the dilution series was then added 100 μl of reagent mix and the samples were incubated for 16 hours while gently shaken. The phases were the then separated by centrifugation for 1 min and the plates counted in a Topcounter. The binding data were fitted using the nonlinear regression algorithm in the GraphPad Prism 2.01 (GraphPad Software, San Diego, Calif.).

Sequence of human insulin receptor (P06213 28-746 isoform P06213-2 limits assumed): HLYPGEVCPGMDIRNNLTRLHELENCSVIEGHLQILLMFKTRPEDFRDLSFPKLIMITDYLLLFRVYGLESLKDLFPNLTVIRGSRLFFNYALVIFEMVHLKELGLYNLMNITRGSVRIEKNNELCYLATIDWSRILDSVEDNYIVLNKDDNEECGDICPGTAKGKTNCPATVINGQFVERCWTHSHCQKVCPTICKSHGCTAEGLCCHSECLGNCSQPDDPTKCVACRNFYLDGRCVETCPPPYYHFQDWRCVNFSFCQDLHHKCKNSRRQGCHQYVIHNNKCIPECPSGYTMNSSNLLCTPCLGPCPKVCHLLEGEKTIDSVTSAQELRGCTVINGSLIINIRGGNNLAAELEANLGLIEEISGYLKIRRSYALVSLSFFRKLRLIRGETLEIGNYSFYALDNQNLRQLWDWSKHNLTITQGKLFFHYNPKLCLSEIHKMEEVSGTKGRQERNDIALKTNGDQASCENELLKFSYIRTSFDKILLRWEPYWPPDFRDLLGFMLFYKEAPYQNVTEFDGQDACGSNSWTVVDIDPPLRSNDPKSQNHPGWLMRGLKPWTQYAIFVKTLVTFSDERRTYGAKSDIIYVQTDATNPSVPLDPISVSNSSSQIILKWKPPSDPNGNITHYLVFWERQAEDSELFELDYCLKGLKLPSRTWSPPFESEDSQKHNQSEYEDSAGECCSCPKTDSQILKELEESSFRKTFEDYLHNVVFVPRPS
Sequence of human insulin receptor (P06213 763-1382 partner limits assumed): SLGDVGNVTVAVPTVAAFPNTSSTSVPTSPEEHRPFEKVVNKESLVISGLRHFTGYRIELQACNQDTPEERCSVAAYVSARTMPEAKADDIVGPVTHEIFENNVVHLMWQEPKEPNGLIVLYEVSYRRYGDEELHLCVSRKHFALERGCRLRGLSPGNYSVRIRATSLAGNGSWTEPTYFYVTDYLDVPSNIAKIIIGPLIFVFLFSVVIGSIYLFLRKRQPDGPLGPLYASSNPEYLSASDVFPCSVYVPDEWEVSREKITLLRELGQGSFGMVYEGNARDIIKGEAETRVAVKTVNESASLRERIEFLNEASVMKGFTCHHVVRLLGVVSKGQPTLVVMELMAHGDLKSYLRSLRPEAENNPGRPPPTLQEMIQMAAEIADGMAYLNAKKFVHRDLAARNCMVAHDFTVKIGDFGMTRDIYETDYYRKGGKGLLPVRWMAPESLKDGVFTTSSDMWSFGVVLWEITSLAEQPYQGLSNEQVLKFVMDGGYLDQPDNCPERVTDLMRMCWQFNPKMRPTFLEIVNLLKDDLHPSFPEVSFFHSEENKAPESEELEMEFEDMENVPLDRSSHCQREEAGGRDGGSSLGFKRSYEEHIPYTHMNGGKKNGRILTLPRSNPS

First: N^εB29-3-[2-(2-{2-[2-(ω-carboxy-heptadecanoylamino)-ethoxy]-ethoxy}-ethoxy)-ethoxy]-propionyl-γ-glutamyl desB30 human insulin [example 6]
Second: N^εB29-(3-(2-{2-[2-(2-{2-[2-(2-{2-[2-(2-{2-[2-(13-carboxy-tridecanoylamino)-ethoxy]-ethoxy}-ethoxy)-ethoxy]-ethoxy}-ethoxy)-ethoxy]-ethoxy}-ethoxy)-ethoxy]-ethoxy}-ethoxy)-propionoyl-γ-glutamyl) desB30 human insulin [example 14]
The “Insulin receptor affinity in relation to human insulin” value (“Insulin receptor affinity in relation” below) of the first is lower: 8.3 for the first, 15 for the second.

First: N^εB29-(3-(2-{2-[2-(9-carboxynonanoylamino)ethoxy]ethoxy}ethylcarbamoyl) propionyl-γ-glutamyl) desB30 human insulin [example 10]
Second: N^εB29-(3-(2-{2-[2-(15-Carboxy-pentadecanoylamino)-ethoxy]-ethoxy}-ethylcarbamoyl)-propionyl-γ-glutamyl) desB30 human insulin [example 17]
The “Insulin receptor affinity in relation” value of the first is higher: 27 for the first, 17 for the second.

First: N^εB29-(3-(3-{2-[2-(3-[7-carboxyheptanoylamino]propoxy)ethoxy]-ethoxy}propylcarbamoyl)propionyl) desB30 human insulin [example 7]
Second: N^εB29-(3-(3-{2-[2-(3-[9-Carboxynonanoylamino]propoxy)ethoxy]ethoxy}-propylcarbamoyl)propionyl) desB30 human insulin [example 9]
The “Insulin receptor affinity in relation” value of the first is higher: 35 for the first, 34 for the second.

Going from “N^εB29-(3-(3-{4-[3-(7-Carboxyheptanoylamino)propoxy]butoxy}propylcarbamoyl)-propionyl-γ-glutamyl) desB30 human insulin [example 8]” to “N^εB29-(3-[2-(2-(2-[2-(13-Carboxy-tridecanoylamino)-ethoxy)-ethoxy]-ethoxy)-ethoxy]-propionoyl-γ-glutamyl) desB30 human insulin [example 15]”, the “Insulin receptor affinity in relation” value rises from 34 to 35.

Going from “N^εB29-(3-[2-(2-{2-[2-(2-{2-[2-(13-carboxy-tridecanoylamino)-ethoxy]-ethoxy)-ethoxy)-ethoxy]-ethoxy}-ethoxy)-ethoxy]-ethoxy}-propionoyl-γ-glutamyl) desB30 human insulin [example 16]” to “N^εB29-(3-[2-(2-{2-[2-(15-carboxypentadecanoylamino)ethoxy]ethoxy}ethoxy)-ethoxy]propionyl)) desB30 human insulin [example 13]”, the “Insulin receptor affinity in relation” value falls from 31 to 17.

Compared with “N^εB29-(3-[2-{2-(2-[ω-carboxy-heptadecanoyl-γ-glutamyl-(2-amino-ethoxy)]-ethoxy)-ethoxy}-ethoxy]-propionyl) desB30 human insulin [example 2]”, “N^εB29-(3-[2-{2-(2-[ω-carboxy-pentadecanoyl-γ-glutamyl-(2-amino-ethoxy)]-ethoxy)-ethoxy}-ethoxy]-propionyl) desB30 human insulin [example 1]” is lower in “Insulin receptor affinity in relation” value: 12 for the first, 11 for the second.

Going from “N^εB29-(ω-[2-(2-{2-[2-(2-carboxy-ethoxy)-ethoxy]-ethoxy}-ethoxy)-ethylcarbamoyl]-heptadecanoyl-α-glutamyl) desB30 human insulin [example 4]” to “N^εB29-(ω-[2-(2-{2-[2-(2-carboxy-ethoxy)-ethoxy]-ethoxy}-ethoxy)-ethylcarbamoyl]-heptadecanoyl-γ-glutamyl) desB30 human insulin [example 5]”, the “Insulin receptor affinity in relation” value falls from 9.2 to 5.6.

For “N^εB29-{3-[2-(2-{2-[2-(15-carboxy-pentadecanoylamino)-ethoxy]-ethoxy}-ethoxy)-ethoxy]-propionyl-γ-glutamyl desB30 human insulin [example 3]”, the “Insulin receptor affinity in relation” value was 14.
